Legend:
human Werner helicase = biological target: T1, human Werner helicase (Homo sapiens, UniProt Q14191, L1074F); assay: WRN (BV08) ADP-Glo Assay; format: biochemical; conditions: WRN-BV08 (517-1235 L1074F) 0.15 nM, 0.1 nM DNA duplex, ATP, 15 min preincubation, 60 min at 25° C, pH 7.5; read-out: ADP-Glo_hWRN_IC50
T1 construct: Uniprot Q14191, amino acids 517-1235 with L1074F point mutation; TEV-cleavable 8xHis tag (C, cleaved yes); made in house; host or cells: Sf9 insect cells (baculovirus)
Source text: Example 2: WRN (BV08) ADP-Glo Assay Protocol
Bovine skin gelatin (BSG), dimethyl sulfoxide (DMSO), Pluronic F-127 and tris(2-carboxyethyl)phosphine hydrochloride solution (TCEP) were purchased from Sigma-Aldrich (St. Louis, MO) at the highest level of purity possible. Bicine buffer solution was purchased from Alfa Aesar (Tewksbury, MA) and compound NSC-617145 was purchased from Tocris (Minneapolis, MN). DNA duplex was synthesized at BGI (Shenzhen, China) and was composed of strand 1 with the sequence 5′-[…]-3′ (SEQ ID NO.: 1) and strand 2 with the sequence 5′-[…]-3′ (SEQ ID NO.: 2). DNA strands were annealed by heating to 95° C. for 5 minutes followed by slow cooling to room temperature. Compounds in 100% DMSO (0.1 μl) were spotted into a 384-well white polystyrene Optiplate-384 (Perkin Elmer; Waltham, MA) assay plate using a LabCyte Echo 550 (Agilent; Santa Clara, CA). DMSO (0.1 μl) was added to columns 12, rows A-H and column 24, rows I-P for the maximum signal control. Compound NSC-617145 (0.1 μl) was added to columns 12, rows I-P and 24, rows A-H for the minimum signal control (100% inhibition). Compounds/DMSO were preincubated for 15 minutes at 25° C. with 5 μl 2×WRN (BV08), prepared as described below, in assay buffer containing 20 mM Bicine (pH=7.5), 1 mM MgCl2, 10 mM KCl, 0.1% Pluronic F-127, 0.005% BSG, 1 mM TCEP. The reaction was initiated by the addition of 5 μl 2× substrate mixture in assay buffer and incubated for 60 minutes at 25° C. The final concentrations of the assay components were 0.15 nM WRN, 5 µM ATP, and 0.1 nM DNA duplex. The final DMSO concentration was 1% and the reference compound concentration (NSC-617145) used for the minimal signal control was 20 μM. The reaction was stopped by the addition of the ADP-Glo Kit components (Promega; Madison, WI) as directed and the relative luminescence units (RLU) were read on an Envision 2104 (Perkin Elmer; Waltham, MA).
Where RLU=relative luminescence units, sample=signal in sample well, and MIN and MAX are the respective minimum and maximum signal controls.
Y=Bottom+(Top−Bottom)/(1+(IC50/X)^Hill Slope)
Where top and bottom are normally allowed to float but may be fixed at 100 or 0 respectively in a 3-parameter fit. Y is the % inhibition and X is the compound concentration.
Molecular Biology and virus production. The DNA encoding human Werner helicase (Uniprot Q14191, amino acids 517-1235 with L1074F point mutation) was generated with codon-optimization for E. coli expression and subcloned into the pFastBac vector with a TEV cleavable 8×His tag (WRN—BV08). The baculovirus from the expression plasmid WRN—BV08 was generated from transfection and amplification following the manufacturer's instructions.
Sf9 cells grown in SF900II media were infected with 1:200 WRN—BV08 P2 virus and incubated for protein expression for 72 h at 27° C. The WRN protein was purified using the following protocol. The cell pellets were thawed and resuspended in buffer A (50 mM Tris, pH 7.5, 500 mM NaCl, 1 mM TCEP, 10% Glycerol) supplemented with 0.5% CHAPS, 1 mM [COMPOUND LEFT OUT], 1 μg/ml Leupeptin, 1 μg/ml Pepstatin, and the Pierce Universal Nuclease and cocktail tablet. Cleared lysates were loaded onto a Ni Sepharose™ excel column and washed with buffer A and bound protein was eluted with buffer A supplemented with 300 mM imidazole. The eluted protein was dialyzed against buffer A and digested by His-tagged TEV (1:5 ratio) overnight at 4° C. […]

p21 (Homo sapiens) = biological target: T2, p21 (Homo sapiens); assay: Effect on p21 induction in HCT116 cells; format: cell-based; conditions: HCT116 colon carcinoma cells, 24 h, p21/GAPDH ratio, percent activation vs internal reference WRN inhibitor; read-out: P21_EC50
T2 construct: p21 in-cell western after 24 h, GAPDH normalised
T2 sequence (Q14191 whole entry): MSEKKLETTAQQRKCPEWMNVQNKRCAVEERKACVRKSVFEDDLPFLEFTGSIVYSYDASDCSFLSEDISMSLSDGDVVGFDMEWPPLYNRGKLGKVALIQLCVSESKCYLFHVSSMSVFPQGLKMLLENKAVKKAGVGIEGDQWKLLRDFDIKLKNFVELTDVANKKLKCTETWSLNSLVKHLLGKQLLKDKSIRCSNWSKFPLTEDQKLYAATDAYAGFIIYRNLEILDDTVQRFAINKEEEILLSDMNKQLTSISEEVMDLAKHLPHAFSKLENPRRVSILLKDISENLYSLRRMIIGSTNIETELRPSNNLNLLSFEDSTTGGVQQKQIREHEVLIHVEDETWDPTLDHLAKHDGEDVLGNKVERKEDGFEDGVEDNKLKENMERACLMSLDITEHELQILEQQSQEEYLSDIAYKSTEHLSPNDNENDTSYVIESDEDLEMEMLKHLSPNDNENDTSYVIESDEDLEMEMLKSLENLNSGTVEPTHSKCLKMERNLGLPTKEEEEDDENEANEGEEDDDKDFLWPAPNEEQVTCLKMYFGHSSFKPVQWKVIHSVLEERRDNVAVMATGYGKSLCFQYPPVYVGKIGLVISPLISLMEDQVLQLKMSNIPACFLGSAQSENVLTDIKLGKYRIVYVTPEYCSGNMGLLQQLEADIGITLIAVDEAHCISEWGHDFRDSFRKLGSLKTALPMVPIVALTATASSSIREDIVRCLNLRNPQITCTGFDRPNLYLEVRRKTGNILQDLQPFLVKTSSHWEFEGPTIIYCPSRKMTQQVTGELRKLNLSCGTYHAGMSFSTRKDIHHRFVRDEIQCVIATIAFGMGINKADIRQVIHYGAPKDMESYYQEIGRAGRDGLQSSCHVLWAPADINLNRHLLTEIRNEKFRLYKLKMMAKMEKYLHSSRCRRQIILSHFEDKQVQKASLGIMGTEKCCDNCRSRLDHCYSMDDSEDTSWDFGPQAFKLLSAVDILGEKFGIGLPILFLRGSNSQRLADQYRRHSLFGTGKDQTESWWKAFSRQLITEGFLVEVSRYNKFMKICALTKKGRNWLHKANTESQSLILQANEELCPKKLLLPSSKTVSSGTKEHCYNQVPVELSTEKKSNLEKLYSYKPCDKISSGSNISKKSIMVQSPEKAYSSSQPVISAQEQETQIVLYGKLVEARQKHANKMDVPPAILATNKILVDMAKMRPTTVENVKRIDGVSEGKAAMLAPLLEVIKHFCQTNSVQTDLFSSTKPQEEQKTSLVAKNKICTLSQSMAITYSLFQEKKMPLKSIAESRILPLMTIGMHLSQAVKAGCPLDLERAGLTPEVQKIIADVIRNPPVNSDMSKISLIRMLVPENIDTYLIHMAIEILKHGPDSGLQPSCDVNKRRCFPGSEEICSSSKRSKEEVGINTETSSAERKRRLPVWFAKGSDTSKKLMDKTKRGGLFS
Method: Example 3: Method for Determining Effect on p21 Induction in Cells
The colon carcinoma cell line HCT116 was obtained from ATCC and cultured in growth medium consisting of Mccoy's 5A Medium (Gibco 16600108) supplemented with 10% FBS (Transgene FS201-02) and 100 units/mL penicillin-streptomycin (Gibco 15140122) and maintained at 37° C. under 5% CO2. On the day of seeding, 2,000 cells in 30 μL of culture media were plated per well to Poly-D-Lysine 384 Well Black Clear Plates (Biocoat 356663) and incubated overnight at 37° C. under 5% CO2. The following day, compounds were serially diluted in DMSO for a total of 11 test concentrations. The typical starting concentration of cpds was 10 μM with 2-fold dilutions. Next, 150 nL of diluted compound was added in duplicate to the assay plate, using an Echo 655 (Labcyte). The plate was centrifuged at 500 RPM for 1 min and then incubated at 37° C. under 5% CO2 for 24 h. After 24 h, medium was removed, and cells were fixed by adding 40 μL of 4% paraformaldehyde solution to each well and incubated for 20 min at room temperature. The plate was then washed 4 times with 100 μL per well of wash buffer (PBS with 0.1% Tween-20) using a microplate washer. Next, 30 μL of ice-cold methanol was added to each well and the plate was incubated at −20° C. for 10 min. The plate was washed 4 times with 100 μL per well of wash buffer by a microplate washer, then 30 μL per well of blocking buffer ((Intercept PBS blocking buffer (LI-COR 927-70001) with 0.05% Tween-20)) was added and the plate was incubated at room temperature with shaking for 2h. Next, to each test well, 20 μL of primary antibody solution ((p21 Waf1/CIP (12D1) Rabbit mAb (Cell Signaling Technologies 2947) diluted 1:1000 and GAPDH (D4C6R) Mouse mAb (Cell Signaling Technologies 97166) diluted 1:2000 in blocking buffer)) was added and the plate was placed at 4° C., overnight. The following day, the plate was washed 5 times with 100 μL per well of wash buffer using a microplate washer for 5 min. 20 μL per well of secondary antibody ((IRDye 680CW Goat anti-Mouse IgG (H+L) (LI-COR 926-68070) diluted 1:2000 in Blocking Buffer and IRDye 800CW Goat anti-Rabbit IgG (H+L) (LI-COR 926-32211) diluted 1:2000 in Blocking Buffer)) was then added and the plate was stored for 2 h in the dark at room temperature with shaking. The plate was then washed 4 times with 100 μL per well of wash buffer again using a microplate washer. Finally, the p21 signal and the GAPDH signal were quantified using a LI-COR Odyssey CLx Imager machine reading at 800 nm and 700 nm, respectively. Each plate contained DMSO control (low control) and an internal reference WRN inhibitor (high control) respectively. For quantitation, the 800 nm/700 nm ratio was calculated for each well to give fold p21 induction and then percent activation for each compound well was calculated as follows ((100×(ratio cpd well−ratio low control)/(ratio high control−ratio low control)). EC50 values for each compound was generated after non-linear regression curve fitting using commercially available software.

T1 sequence (Q14191 with tags, fused parts or gaps L1074F): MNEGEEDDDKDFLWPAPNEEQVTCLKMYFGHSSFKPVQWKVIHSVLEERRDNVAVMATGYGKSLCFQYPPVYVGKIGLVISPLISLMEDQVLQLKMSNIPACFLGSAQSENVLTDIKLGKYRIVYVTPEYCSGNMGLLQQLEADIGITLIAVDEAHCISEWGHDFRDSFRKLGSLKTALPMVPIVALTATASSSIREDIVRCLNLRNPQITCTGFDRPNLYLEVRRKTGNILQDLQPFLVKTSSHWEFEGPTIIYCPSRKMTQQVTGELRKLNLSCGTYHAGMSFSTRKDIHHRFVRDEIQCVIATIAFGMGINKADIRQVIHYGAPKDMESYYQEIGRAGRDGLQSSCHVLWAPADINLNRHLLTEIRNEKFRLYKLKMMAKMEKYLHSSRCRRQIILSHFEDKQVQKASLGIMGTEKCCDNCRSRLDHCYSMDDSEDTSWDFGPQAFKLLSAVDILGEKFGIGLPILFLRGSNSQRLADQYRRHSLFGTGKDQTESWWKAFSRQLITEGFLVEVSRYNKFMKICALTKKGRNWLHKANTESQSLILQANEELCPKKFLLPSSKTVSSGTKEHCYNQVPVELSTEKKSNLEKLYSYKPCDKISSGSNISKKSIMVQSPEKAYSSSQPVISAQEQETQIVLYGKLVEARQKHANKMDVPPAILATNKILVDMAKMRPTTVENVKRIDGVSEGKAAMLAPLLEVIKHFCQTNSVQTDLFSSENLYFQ

SMILES | IC50 (human Werner helicase) [nM] | EC50 (p21 (Homo sapiens)) [nM]
CCc1c(N2CCN(C(=O)c3ncnc(C)c3O)CC2)c(=O)c2nc(-c3ccnc(OC)c3)oc2n1CC(=O)Nc1ccc(C(F)(F)F)cc1Cl [1-2] | ≤ 5 | –
CCc1c(N2CCN(C(=O)c3ncnc(C)c3O)CC2)c(=O)c2oc(-c3ccnc(OC)c3)nc2n1CC(=O)NC12CC(C(F)(F)F)(C1)C2 [1-3] | 5 to 50 | –
CCc1c(N2CCN(C(=O)c3ncnc(C)c3O)CC2)c(=O)c2oc(-c3ccnc(OC)c3)nc2n1CC(=O)Nc1ccc(C(F)(F)F)cc1Cl [I-1, N-(2-chloro-4-(trifluoromethyl)phenyl)-2-(5-ethyl-6-(4-(5-hydroxy-6-methylpyrimidine-4-carbonyl)piperazin-1-y1)-2-(2-methoxypyridin-4-yl)-7-oxooxazolo[4,5-b]pyridin-4(7H)-yl)acetamide] | ≤ 5 | ≤ 500
CCc1c(N2CCN(C(=O)c3ncnc(C)c3O)CC2)c(=O)c2nc(-c3ccnc(OC)c3)oc2n1CC(=O)Nc1ccc(C(F)(F)F)cc1Cl [I-2, N-(2-chloro-4-(trifluoromethyl)phenyl)-2-(5-ethyl-6-(4-(5-hydroxy-6-methylpyrimidine-4-carbonyl)piperazin-1-yl)-2-(2-methoxypyridin-4-yl)-7-oxooxazolo[5,4-b]pyridin-4(7H)-yl)acetamide] | – | ≤ 500
CCc1c(N2CCN(C(=O)c3ncnc(C)c3O)CC2)c(=O)c2oc(-c3ccnc(OC)c3)nc2n1CC(=O)NC12CC(C(F)(F)F)(C1)C2 [I-3, 2-(5-ethyl-6-(4-(5-hydroxy-6-methylpyrimidine-4-carbonyl)piperazin-1-yl)-2-(2-methoxypyridin-4-yl)-7-oxooxazolo[4,5-b]pyridin-4(7H)-yl)-N-(3-(trifluoromethyl)bicyclo[1.1.1]pentan-1-yl)acetamide] | – | 2000 to 5000
CCc1c(N2CCN(C(=O)c3ncnc(C)c3O)CC2)c(=O)c2nc(-c3ccnc(OC)c3)oc2n1CC(=O)NC12CC(C(F)(F)F)(C1)C2 [I-4, 2-(5-ethyl-6-(4-(5-hydroxy-6-methylpyrimidine-4-carbonyl)piperazin-1-yl)-2-(2-methoxypyridin-4-yl)-7-oxooxazolo[5,4-b]pyridin-4(7H)-y1)-N-(3-(trifluoromethyl)bicyclo[1.1.1]pentan-1-yl)acetamide] | 5 to 50 | > 5000
CCc1c(N2CCN(C(=O)c3c(O)ccc4ncoc34)CC2)c(=O)c2oc(-c3ccnc(OC)c3)nc2n1CC(=O)Nc1ccc(C(F)(F)F)cc1Cl [I-5, N-(2-chloro-4-(trifluoromethyl)phenyl)-2-(5-ethyl-6-(4-(6-hydroxybenzo[d]oxazole-7-carbonyl)piperazin-1-y1)-2-(2-methoxypyridin-4-yl)-7-oxooxazolo[4,5-b]pyridin-4(7H)-y1)acetamide] | ≤ 5 | ≤ 500
